Results published in the Kinase Knowledgebase extract (Sharma et al. 2016).

target: PIK3CA (human) (UniProt P42336); test: Inhibition of PIK3CA Kinase Activity
Sequence (P42336 whole entry, looked up): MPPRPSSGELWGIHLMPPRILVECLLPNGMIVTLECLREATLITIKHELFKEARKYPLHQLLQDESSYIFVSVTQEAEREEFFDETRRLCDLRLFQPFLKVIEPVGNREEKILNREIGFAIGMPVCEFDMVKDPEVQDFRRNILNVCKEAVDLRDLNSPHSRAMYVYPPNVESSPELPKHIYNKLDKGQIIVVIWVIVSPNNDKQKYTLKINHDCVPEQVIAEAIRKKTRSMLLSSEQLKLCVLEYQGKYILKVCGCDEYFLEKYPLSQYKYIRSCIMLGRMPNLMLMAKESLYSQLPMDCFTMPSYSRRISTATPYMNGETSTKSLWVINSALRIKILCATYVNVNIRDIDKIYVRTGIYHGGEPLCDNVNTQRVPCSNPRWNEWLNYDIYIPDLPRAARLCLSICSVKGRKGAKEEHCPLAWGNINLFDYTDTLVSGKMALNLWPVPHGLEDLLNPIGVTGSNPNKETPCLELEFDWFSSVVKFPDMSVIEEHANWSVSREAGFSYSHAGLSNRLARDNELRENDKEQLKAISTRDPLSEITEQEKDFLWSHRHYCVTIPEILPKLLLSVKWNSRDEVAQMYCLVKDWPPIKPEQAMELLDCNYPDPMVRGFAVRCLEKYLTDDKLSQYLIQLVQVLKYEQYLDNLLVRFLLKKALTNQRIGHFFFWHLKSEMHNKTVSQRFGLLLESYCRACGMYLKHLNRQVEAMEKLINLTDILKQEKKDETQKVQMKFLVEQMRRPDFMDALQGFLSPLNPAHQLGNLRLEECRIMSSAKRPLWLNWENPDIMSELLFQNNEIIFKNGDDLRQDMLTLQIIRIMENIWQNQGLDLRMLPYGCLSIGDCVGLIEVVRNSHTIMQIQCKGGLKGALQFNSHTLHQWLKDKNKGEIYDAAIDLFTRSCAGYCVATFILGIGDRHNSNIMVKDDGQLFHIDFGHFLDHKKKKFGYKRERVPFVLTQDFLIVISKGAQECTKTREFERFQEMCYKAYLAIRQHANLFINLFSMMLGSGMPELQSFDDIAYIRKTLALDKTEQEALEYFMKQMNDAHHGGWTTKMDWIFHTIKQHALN

IC50 | SMILES
< 1000 nM | O=C(Cc1cccnc1)N1CCC(n2cnc3c(-c4cccc5[nH]ccc45)nc(N4CCOCC4)nc32)CC1
< 1000 nM | CC1CCC(n2cnc3c(-c4cnc(N)nc4)nc(N4CCOCC4)nc32)C1 (configuration not stated)
< 1000 nM | CCC(C)n1c(N2CCCC2)nc2c(-c3cccc(O)c3)nc(N3CCOCC3)nc21 (configuration not stated)
< 1000 nM | CCC(C)n1cnc2c(-c3cnc(N)nc3C)nc(N3CCOCC3)nc21 (configuration not stated)
< 1000 nM | Oc1cccc(-c2nc(N3CCOCC3)nc3c2ncn3CC2CC2)c1
< 1000 nM | O=[N+]([O-])c1ccc(Cn2cnc3c(-c4cccc(O)c4)nc(N4CCOCC4)nc32)cc1
< 1000 nM | CCC(C)n1c(SC)nc2c(-c3cccc(O)c3)nc(N3CCOCC3)nc21 (configuration not stated)
< 1000 nM | Oc1cccc(-c2nc(N3CCOCC3)nc3c2ncn3Cc2cc(F)cc(F)c2)c1
< 1000 nM | Nc1ncc(-c2nc(N3CCOCC3)nc3c2ncn3-c2ccccc2)cn1
< 1000 nM | Nc1ccc(-c2nc(N3CCOCC3)nc3c2ncn3Cc2cccc([N+](=O)[O-])c2)cn1
< 1000 nM | CS(=O)(=O)Nc1ccc(Cn2cnc3c(-c4cccc(O)c4)nc(N4CCOCC4)nc32)cc1
< 1000 nM | O=C(Cn1cnc2c(-c3cccc(O)c3)nc(N3CCOCC3)nc21)Nc1ccccc1
< 1000 nM | Oc1cccc(-c2nc(N3CCOCC3)nc3c2ncn3C2CCCCO2)c1 (configuration not stated)
< 1000 nM | CCC(C)n1cnc2c(-c3cccc4[nH]ncc34)nc(N3CCOCC3)nc21 (configuration not stated)
< 1000 nM | O=C(Cn1cnc2c(-c3cccc(O)c3)nc(N3CCOCC3)nc21)N1CCOCC1
< 1000 nM | Cc1nc(N)ncc1-c1nc(N2CCOCC2)nc2c1ncn2C(C)C1CC1 (configuration not stated)
< 1000 nM | CC(=O)Nc1cccc(Cn2cnc3c(-c4cccc(O)c4)nc(N4CCOCC4)nc32)c1
< 1000 nM | COC(=O)c1ccc(Cn2cnc3c(-c4cccc(O)c4)nc(N4CCOCC4)nc32)cc1
< 1000 nM | CC(C)(C)OC(=O)N1CCC(n2cnc3c(-c4cccc(O)c4)nc(N4CCOCC4)nc32)CC1

IC50 | SMILES
< 1000 nM | COCC(C)n1cnc2c(-c3cnc(N)nc3C)nc(N3CCOCC3)nc21 (configuration not stated)
< 1000 nM | O=C(Nc1ccc(Cl)cc1)N1CCC(n2cnc3c(-c4cccc5[nH]ccc45)nc(N4CCOCC4)nc32)CC1
< 1000 nM | CCC(C)n1cnc2c(-c3ccc(N)nc3)nc(N3CCOCC3)nc21 (configuration not stated)
< 1000 nM | CCC(C)n1c(C)nc2c(-c3cccc(O)c3)nc(N3CCOCC3)nc21 (configuration not stated)
< 1000 nM | Nc1ncc(-c2nc(N3CCOCC3)nc3[nH]cnc23)cn1
< 1000 nM | CC(=O)Nc1ccc(Cn2cnc3c(-c4cccc(OC(C)=O)c4)nc(N4CCOCC4)nc32)cc1
< 1000 nM | COc1cccc(Cn2cnc3c(-c4cccc(O)c4)nc(N4CCOCC4)nc32)c1
< 1000 nM | COCC(C)n1cnc2c(-c3cccc(O)c3)nc(N3CCOCC3)nc21 (configuration not stated)
< 1000 nM | CC(=O)Nc1ccc(Cn2cnc3c(-c4cccc(O)c4)nc(N4CCOCC4)nc32)cc1
< 1000 nM | CCNc1ccc(Cn2cnc3c(-c4cccc(O)c4)nc(N4CCOCC4)nc32)cc1
< 1000 nM | CCC(C)n1cnc2c(-c3cccc4[nH]ccc34)nc(N3CCOCC3)nc21 (configuration not stated)
< 1000 nM | Nc1ccc(Cn2cnc3c(-c4cccc(O)c4)nc(N4CCOCC4)nc32)cc1
< 1000 nM | c1cc(-c2nc(N3CCOCC3)nc3c2ncn3C2CCOC2)c2cc[nH]c2c1 (configuration not stated)
< 1000 nM | CCC(C)n1c(Cl)nc2c(-c3cccc(O)c3)nc(N3CCOCC3)nc21 (configuration not stated)
< 1000 nM | CC(C)n1cnc2c(-c3cccc4[nH]ccc34)nc(N3CCOCC3)nc21
< 1000 nM | CC(c1ccccc1)n1cnc2c(-c3cccc(O)c3)nc(N3CCOCC3)nc21 (configuration not stated)
< 1000 nM | Cc1cccc(-n2cnc3c(-c4cccc(O)c4)nc(N4CCOCC4)nc32)c1
< 1000 nM | Nc1ncc(-c2nc(N3CCOCC3)nc3c2ncn3C2Cc3ccccc3C2)cn1
< 1000 nM | N#CCn1cnc2c(-c3cccc4[nH]ccc34)nc(N3CCOCC3)nc21

IC50 | SMILES
< 1000 nM | Oc1cccc(-c2nc(N3CCOCC3)nc3c2ncn3C2CCCC2)c1
< 1000 nM | CC(C)(C)OC(=O)N1CCC(n2cnc3c(-c4cnc(N)nc4)nc(N4CCOCC4)nc32)CC1
< 1000 nM | CCCC(=O)N1CCC(n2cnc3c(-c4cccc5[nH]ccc45)nc(N4CCOCC4)nc32)CC1
< 1000 nM | CC(C)(C)Cn1cnc2c(-c3cnc(N)nc3)nc(N3CCOCC3)nc21
< 1000 nM | COCCn1cnc2c(-c3cccc(O)c3)nc(N3CCOCC3)nc21
< 1000 nM | CC(C1CC1)n1cnc2c(-c3cccc4[nH]ccc34)nc(N3CCOCC3)nc21 (configuration not stated)
< 1000 nM | CC(C)(C)CC(=O)N1CCC(n2cnc3c(-c4cccc5[nH]ccc45)nc(N4CCOCC4)nc32)CC1
< 1000 nM | CC(C1CC1)n1cnc2c(-c3cccc(O)c3)nc(N3CCOCC3)nc21 (configuration not stated)
< 1000 nM | CS(=O)(=O)N1CCN(C(=O)Cn2cnc3c(-c4cccc(O)c4)nc(N4CCOCC4)nc32)CC1
< 1000 nM | CCC(C)n1cnc2c(-c3cnc(N)nc3OC)nc(N3CCOCC3)nc21 (configuration not stated)
< 1000 nM | N#Cc1cccc(Cn2cnc3c(-c4cccc(O)c4)nc(N4CCOCC4)nc32)c1
< 1000 nM | CC(C)(C)OC(=O)N1CCC(n2cnc3c(-c4cccc5[nH]ccc45)nc(N4CCOCC4)nc32)C1 (configuration not stated)
< 1000 nM | OCc1cccc(-c2nc(N3CCOCC3)nc3c2ncn3Cc2ccccc2)c1
< 1000 nM | CCC(C#N)n1cnc2c(-c3cccc4[nH]ccc34)nc(N3CCOCC3)nc21 (configuration not stated)
< 1000 nM | O=C(CCN1CCCCC1)N1CCC(n2cnc3c(-c4cccc5[nH]ccc45)nc(N4CCOCC4)nc32)CC1
< 1000 nM | CCCCN1CCC(n2cnc3c(-c4cccc(O)c4)nc(N4CCOCC4)nc32)CC1
< 1000 nM | CCSc1nc2c(-c3cccc(O)c3)nc(N3CCOCC3)nc2n1C(C)CC (configuration not stated)
< 1000 nM | Oc1cccc(-c2nc(N3CCOCC3)nc3[nH]c(Br)nc23)c1
< 1000 nM | Nc1cccc(Cn2cnc3c(-c4cccc(O)c4)nc(N4CCOCC4)nc32)c1
